According to PMC10338470, “Phase 1 study of GSK3368715, a type I PRMT inhibitor, in patients with advanced solid tumors” (British Journal of Cancer, 2023):

What was measured:
Format in all cases: in vivo, human
[1] = test system: circulating free ADMA, cfMMA, cfSDMA; test: Plasma circulating free ADMA, MMA and SDMA; conditions: day 15
Method: (§1) Tumor cell and plasma target engagement PD biomarkers were assessed in the dose-escalation cohort on days 1, 8, 15, and 22. In the PK/PD cohort, urine for PK and metabolite profiling was collected postdose on day 1 and through 48 h postdose on day 2, and for 24 h postdose on day 15. Participants underwent an on-treatment tumor biopsy on day 15. Asymmetric arginine 225 (R225) methylation of heterogeneous nuclear ribonucleoprotein A1 (hnRNP-A1) was identified as a target engagement PD of type I PRMT inhibition; treatment with GSK3368715 results in the reduction of asymmetric dimethylarginine 225 (ADMA-R225) on hnRNP-A1 protein in cancer cell lines and peripheral blood mononuclear cells (PBMCs). Noto et al. describe in detail the identification of hnRNP-A1 as a pharmacodynamic biomarker of type I PRMT inhibition, and the development of novel methodologies to accurately and precisely quantitate changes in the levels of ADMA on hnRNP-A1 in both blood and tumor compartments. Levels of ADMA-R225-hnRNP-A1 were measured in fresh frozen and formalin-fixed paired biopsies by liquid chromatography-mass spectrometry (LC-MS) and immunohistochemistry (IHC).

[2] = test system: ADMA-R225-hnRNP-A1 in tumor biopsies; test: Tumor biopsy ADMA-R225-hnRNP-A1 by LC-MS (fresh frozen); conditions: 100-mg dose level, day 15
Method: as §1

[3] = test system: ADMA-R225-hnRNP-A1 in tumor biopsies; test: Tumor biopsy ADMA-R225-hnRNP-A1 by IHC (formalin-fixed); conditions: 100-mg dose level, day 15; in 4/8 patients
Method: as §1

CCOCC1(COCC)CCC(c2[nH]ncc2CN(C)CCNC)CC1 [GSK3368715]
Increase in cfMMA, mean (SE 11.9%) ([1]; 100 mg): 24.8% | Increase in cfSDMA, mean (SE 8.65%) ([1]; 100 mg): 30.2% | Reduction in circulating free ADMA, mean (SE 1.98%) ([1]; 100 mg): 22.5% | Increase in cfMMA, mean (SE 18.7%) ([1]; 200 mg): 43.8% | Increase in cfSDMA, mean (SE 23.8%) ([1]; 200 mg): 39.8% | Reduction in circulating free ADMA, mean (SE 7.7%) ([1]; 200-mg dose group): 29.1% | Target engagement in tumor biopsies [2]: modest and variable | Mean reduction of ADMA-hnRNP-A1 in tumor biopsies by LC-MS (SE 9.6) ([2]; in 4/6 patients): 18.5% | Mean reduction of ADMA-hnRNP-A1 in tumor biopsies by IHC (SE 9.36) [3]: 2.08%
